Reference: article PMC2655357 (The Febs Journal, 2008)

Molecular target: AaIspE (Aquifex aeolicus, UniProt O67060)
Assay: crystal structure
Format: binding
Conditions: co-crystallized with 4 mM AMP-PNP and 4 mM CDP; substrate (CDPME) site

Sequence of AaIspE (O67060 whole entry): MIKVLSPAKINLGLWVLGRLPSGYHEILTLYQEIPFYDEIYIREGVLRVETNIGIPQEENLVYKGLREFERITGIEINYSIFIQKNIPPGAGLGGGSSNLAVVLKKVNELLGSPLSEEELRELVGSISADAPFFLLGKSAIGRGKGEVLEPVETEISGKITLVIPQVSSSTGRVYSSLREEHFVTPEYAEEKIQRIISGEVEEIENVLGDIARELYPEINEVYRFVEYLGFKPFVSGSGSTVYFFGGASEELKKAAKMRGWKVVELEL

Nc1ccn([C@@H]2O[C@H](COP(=O)(O)OP(=O)(O)O)[C@@H](O)[C@H]2O)c(=O)n1 [CDP]
crystal structure (complex I, 2.1 Å): In complex I, CDP displays a single conformation in molecule A and three in molecule B
